Assays:
[1] = target: T1, HMG-CoA reductase (Rattus norvegicus, UniProt P51639); assay: COR screen: conversion of 14C-HMG-CoA to 14C-mevalonate by purified HMG-CoA reductase; format: biochemical; conditions: purified enzyme preparation, footnote: adjusted for a standard IC50 value for compactin (internal standard)
T1 sequence (P51639 1-887): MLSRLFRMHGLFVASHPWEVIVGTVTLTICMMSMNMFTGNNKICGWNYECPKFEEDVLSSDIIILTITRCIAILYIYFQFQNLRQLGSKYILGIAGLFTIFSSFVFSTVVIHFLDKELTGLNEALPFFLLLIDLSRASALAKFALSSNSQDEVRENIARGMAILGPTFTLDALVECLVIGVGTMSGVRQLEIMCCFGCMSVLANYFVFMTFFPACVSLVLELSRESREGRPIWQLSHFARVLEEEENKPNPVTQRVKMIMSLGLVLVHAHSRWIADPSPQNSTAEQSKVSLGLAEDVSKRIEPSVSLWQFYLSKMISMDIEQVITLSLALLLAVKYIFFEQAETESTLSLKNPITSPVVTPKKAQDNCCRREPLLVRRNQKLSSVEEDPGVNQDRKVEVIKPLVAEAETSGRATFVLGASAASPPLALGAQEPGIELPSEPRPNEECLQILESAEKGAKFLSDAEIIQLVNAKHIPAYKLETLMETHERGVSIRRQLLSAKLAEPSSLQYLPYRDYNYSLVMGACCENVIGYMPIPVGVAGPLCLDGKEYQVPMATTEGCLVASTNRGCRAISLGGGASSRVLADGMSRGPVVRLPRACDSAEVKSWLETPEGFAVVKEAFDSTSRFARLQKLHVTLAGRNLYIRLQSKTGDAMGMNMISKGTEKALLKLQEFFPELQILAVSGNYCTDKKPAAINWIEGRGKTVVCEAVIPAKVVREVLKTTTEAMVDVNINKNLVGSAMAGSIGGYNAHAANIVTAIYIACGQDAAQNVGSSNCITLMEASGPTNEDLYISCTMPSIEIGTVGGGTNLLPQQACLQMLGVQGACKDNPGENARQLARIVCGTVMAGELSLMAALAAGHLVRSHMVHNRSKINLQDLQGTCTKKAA
Description: A second method (designated COR screen) employed the procedure detailed by T. Kita, et al., J. Clin. Invest., (1980), 66: 1094-1100. In this method, the amount of ^14 C-HMG-CoA converted to ^14 C-mevalonate in the presence of a purified enzyme preparation of HMG-CoA reductase was measured. The micromolar concentration of compound required for 50% inhibition of cholesterol synthesis was measured and recorded as an IC50 value.

[2] = system: sterol synthesis by rat liver homogenate; assay: CSI screen: inhibition of sterol synthesis (14C-acetate incorporation into nonsaponifiable lipid) by rat liver homogenate; format: biochemical; conditions: one-hour period, footnote: adjusted for a standard IC50 value for compactin (internal standard)
Description: The ability of compounds of the present invention to inhibit the biosynthesis of cholesterol was measured by two methods. A first method (designated CSI screen) utilized the procedure described by R. E. Dugan et al., Archiv. Biochem. Biophys., (1972), 152, 21-27. In this method, the level of HMG-CoA enzyme activity in standard laboratory rats is increased by feeding the rats a chow diet containing 5% cholestyramine for four days, after which the rats are sacrificed.
The rat livers are homogenized, and the incorporation of cholesterol-^14 C-acetate into nonsaponifiable lipid by the rat liver homogenate is measured. The micromolar concentration of compound required for 50% inhibition of sterol synthesis over a one-hour period is measured, and expressed as an IC50 value.

Structure (SMILES) | IC50 [1] [µM] | IC50 [2] [µM]
CC(C)c1c(Br)c(Br)c(-c2ccc(F)cc2)n1CC[C@H]1C[C@H](O)CC(=O)O1 (relative stereo) [Compound 3, 6-[2-[2-(4-fluorophenyl)-3,4 dibromo-5-(1-methylethyl)-1H-pyrrol-1-yl]ethyl]tetrahydro-4-hydroxy-trans-2H-pyran-2-one] | 0.001 | 0.22
COC(=O)c1c(C(=O)OC)c(C(C)C)n(CC[C@@H]2C[C@@H](O)CC(=O)O2)c1-c1ccc(F)cc1 (relative stereo) [Compound 4, Dimethyl-2-(4-Fluorophenyl)-5-(1-methylethyl)-1-[2-(tetrahydro-4-hydroxy-6-oxo-2H-pyran-2-yl)ethyl]-1H-pyrrole-3,4-dicarboxylate] | 0.08 | 0.11
CC(C)c1ccc(-c2ccc(F)cc2)n1CC[C@H]1C[C@H](O)CC(=O)O1 (relative stereo) [Compound 1, trans-6-[2-[2-(4-fluorophenyl)-5-(1-methylethyl)-1H-pyrrol-1-yl]ethyl]tetrahydro-4-hydroxy-2H-pyran-2-one] | 0.28 | 0.48

Further compounds by falling IC50 [1], results first:

IC50 [1] [µM] | IC50 [2] [µM] | Structure (SMILES)
0.028 | 0.026 | CC[C@H](C)C(=O)O[C@H]1CCC=C2C=C[C@H](C)[C@H](CC[C@@H]3C[C@@H](O)CC(=O)O3)[C@H]21 [Compound 5, Compactin, reference compound]
0.024 | 0.16 | CC(C)c1c(Cl)c(Cl)c(-c2ccc(F)cc2)n1CC[C@H]1C[C@H](O)CC(=O)O1 (relative stereo) [Compound 2, 6-[2-[2-(4-fluorophenyl)-3,4-dichloro-5-(1-methylethyl)-1H-pyrrol-1-yl]ethyl]tetrahydro-4-hydroxy-trans-2H-pyran-2-one]
